This is an account of results in patent US6919338B2, “Substituted quinazoline derivatives and their use as inhibitors of aurora-2 kinase” (AstraZeneca AB, priority 2000, dated 2005).

The structures appear in SMILES notation.

Assay [1] deals with human tumour cell line MCF7. In words: In vitro cell proliferation assay. It counts as cell-based. To be noted: MCF7, 72 h, MCF-7 cells, 3 days with compound, CyQUANT, read-out: concentration giving 50% inhibition of cell proliferation. The source says: (a) In Vitro Cell Proliferation Assay
This assay determines the ability of a test compound to inhibit the growth of adherent mammalian cell lines, for example the human tumour cell line MCF7. MCF-7 (ATCC HTB-22) or other adherent cells were typically seeded at 1×10^3 cells per well (excluding the peripheral wells) in DMEM (Sigma Aldrich) without phenol red, plus 10% foetal calf serum, 1% L-glutamine and 1% penicillin/streptomycin in 96 well tissue culture treated clear plates (Costar). The following day (day 1), the media was removed from a no treatment control plate and the plate stored at −80° C. The remaining plates were dosed with compound (diluted from 10 mM stock in DMSO using DMEM (without phenol red, 10% FCS, 1% L-glutamine, 1% penicillin/streptomycin). Untreated control wells were included on each plate. After 3 days in the presence/absence of compound (day 4) the media was removed and the plates stored at −80° C. Twenty four hours later the plates were thawed at room temperature and cell density determined using the CyQUANT cell proliferation assay kit (c-7026/c-7027 Molecular Probes Inc.) according to manufacturers directions. Briefly, 200 μl of a cell lysis/dye mixture (10 μl of 20× cell lysis buffer B, 190 μl of sterile water, 0.25 μl of CYQUANT GR dye) was added to each well and the plates incubated at room temperature for 5 minutes in the dark. […]

Another assay concerns MCF7 cells. As to the kind of experiment: In vitro cell cycle analysis assay. It counts as cell-based, human. The following applies: 24 hours, 10 μM Compound 52 (text b2735 says 1 μM). As for the experimental part: (a) In Vitro Cell Cycle Analysis Assay
This assay determines the ability of a test compound to arrest cells in specific phases of the cell cycle. Many different mammalian cell lines could be used in this assay and MCF7 cells are included here as an example. MCF-7 cells were seeded at 3×10^5 cells per T25 flask (Costar) in 5 ml DMEM (no phenol red 10% FCS, 1% L-glutamine 1% penicillin/streptomycin). Flasks were then incubated overnight in a humidified 37° C. incubator with 5% CO2. The following day 1 ml of DMEM (no phenol red 10% FCS, 1% L-glutamine 1% penicillin/streptomycin) carrying the appropriate concentration of test compound solubilised in DMSO was added to the flask. A no compound control treatments was also included (0.5% DMSO). The cells were then incubated for a defined time (usually 24 hours) with compound. […] The samples were then transferred to LPS tubes and DNA content per cell analysed by Fluorescence activated cell sorting (FACS) using a FACScan flow cytometer (Becton Dickinson). Typically 25000 events were counted and recorded using CellQuest v1.1 software (Verity Software). Cell cycle distribution of the population was calculated using Modfit software (Verity Software) and expressed as percentage of cells in G0/G1, S and G2/M phases of the cell cycle. […]

A further assay addresses T1, aurora2 kinase (Homo sapiens, UniProt O14965).
T1 construct: made in house; host or cells: Spodoptera frugiperda Sf21 insect cells (baculovirus)
T1 sequence (O14965 1-403): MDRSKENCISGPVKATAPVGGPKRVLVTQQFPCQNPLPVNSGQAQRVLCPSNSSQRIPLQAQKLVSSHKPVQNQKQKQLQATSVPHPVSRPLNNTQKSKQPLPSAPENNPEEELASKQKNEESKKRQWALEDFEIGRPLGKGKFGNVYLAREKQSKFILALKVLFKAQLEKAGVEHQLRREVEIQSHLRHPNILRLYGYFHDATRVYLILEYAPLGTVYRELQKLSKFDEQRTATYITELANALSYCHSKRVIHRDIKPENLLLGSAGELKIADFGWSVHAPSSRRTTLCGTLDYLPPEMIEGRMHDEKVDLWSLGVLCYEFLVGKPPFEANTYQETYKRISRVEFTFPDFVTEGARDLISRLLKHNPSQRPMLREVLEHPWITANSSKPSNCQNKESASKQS
As to the kind of experiment: In vitro aurora2 kinase inhibition test. Format: biochemical.

In the case of `COc1cc2c(Nc3nc(CC(=O)Nc4ccc(F)cc4)cs3)ncnc2cc1OCCCN1CCOCC1` [Compound 52], the IC50 in assay [1] was found to be 616 nM; on aurora2 kinase, 167 nM. In addition, in the assay on MCF7 cells, the “% Cells in G2/M” value was more than 50%.
